Test results: patent US10005773B2, “1-(4-pyrimidinyl)-1H-pyrrolo[3,2-c]pyridine derivatives as NIK inhibitors” (Janssen Pharmaceutica NV, priority 2013, dated 2018)

Legend:
[1] = tested on: P-IKKα levels in L363 cells; experiment: Biological Assay B: effect of compounds on P-IKKα levels in L363 cells; format: cell-based; settings: Homo sapiens, L-363, BAFF stimulated, 2 hr treatment, averaged over all batches, read-out: IKKα Cellular IC50
Description: Effect of Compounds on P-IKKα Levels in L363 Cells
All compounds tested were dissolved in DMSO and further dilutions were made in culture medium. Final DMSO concentration was 1% (v/v) in cell assays. The human L363 cells (ATCC) were cultured in RPMI 1640 medium supplemented with GlutaMax and 10% fetal calf serum (PAA). Cells were routinely maintained at densities of 0.2×10^6 cells per ml-1×10^6 cells per ml at 37° C. in a humidified 5% CO2 atmosphere. Cells were passaged twice a week splitting back to obtain the low density. Cells were seeded in 96 well plates (Nunc 167008) at 2×10^6 per ml media in a volume of 75 μl per well plus 25 μl 1 μg/ml recombinant human B-cell activating factor (BAFF/BLyS/TNFSF13B). Seeded cells were incubated at 37° C. in a humidified 5% CO2 atmosphere for 24 hr. Drugs and/or solvents were added (20 μl) to a final volume of 120 μl. Following 2 hr treatment plates were removed from the incubator and cell lysis was achieved by the addition of 30 μl 5× lysis buffer followed by shaking on a plate shaker at 4° C. for 10 min. At the end of this incubation lysed cells were centrifuged at 800×g for 20 min at 4° C. and the lysate was assessed for P-IKKα levels by sandwich immuno-assay carried out in anti-rabbit antibody coated Mesoscale plates. Within an experiment, the results for each treatment were the mean of 2 replicate wells. For initial screening purposes, compounds were tested using an 8 point dilution curve (serial 1:3 dilutions). For each experiment, controls (containing MG132 and BAFF but no test drug) and a blank incubation (containing MG132 and BAFF and 10 μM ADS125117, a test concentration known to give full inhibition) were run in parallel. The blank incubation value was subtracted from all control and sample values. To determine the IC50 a sigmoidal curve was fitted to the plot of % inhibition of control P-IKKα levels versus Log10 compound concentration.

[2] = tested on: JJN-3 cells; experiment: Biological Assay C: antiproliferative activity on JJN-3 cells (CellTiter-Glo); format: cell-based; settings: Homo sapiens, 72 hr treatment
Description: (§1) Determination of Antiproliferative Activity on LP-1, L-363 and JJN-3 Cells
(§2) All compounds tested were dissolved in DMSO and further dilutions were made in culture medium. Final DMSO concentration was 0.3% (v/v) in cell proliferation assays. Viability was assessed using CellTiter-Glo cell viability assay kit (Promega). The human LP-1, L-363 and JJN-3 cells (DSMZ) were cultured in RPMI 1640 medium supplemented with 2 mM L-glutamine, and 10% fetal calf serum (PAA). Cells were routinely kept as suspension cells at 37° C. in a humidified 5% CO2 atmosphere. Cells were passaged at a seeding density of 0.2×10^6/ml twice a week. Cells were seeded in black tissue culture treated 96-well plates (Perkin Elmer). Densities used for plating ranged from 2,000 to 6,000 cells per well in a total volume of 75 μl medium. After twenty four hours, drugs and/or solvents were added (25 μl) to a final volume of 100 μl. Following 72 hr of treatment plates were removed from the incubator and allowed to equilibrate to room temperature for approx 10 min. 100 μl CellTiter-Glo reagent was added to each well that was then covered (Perkin Elmer Topseal) and shaken on plate shaker for 10 min. Luminescence was measured on a HTS Topcount (Perkin Elmer). Within an experiment, the results for each treatment were the mean of 2 replicate wells. For initial screening purposes, compounds were tested using a 9 point dilution curve (serial 1:3 dilutions). For each experiment, controls (containing no drug) and a blank incubation (containing cells read at the time of compound addition) were run in parallel. The blank value was subtracted from all control and sample values. For each sample, the mean value for cell growth (in relative light units) was expressed as a percentage of the mean value for cell growth of the control.

[3] = tested on: L-363 cells; experiment: Biological Assay C: antiproliferative activity on L-363 cells (CellTiter-Glo); format: cell-based; settings: Homo sapiens, 72 hr treatment
Description: as §1, §2

[4] = molecular target: T1, Recombinant Human NF-kappaB-Inducing Kinase (NIK/MAP3K14) (Homo sapiens, UniProt Q99558); experiment: Biological Assay A2: inhibition of auto-phosphorylation of recombinant human NIK/MAP3K14 (AlphaScreen); format: biochemical; settings: 25 microM ATP, 0.2 nM NIK/MAP3K14, 1 h at 25° C., averaged over all batches, read-out: Alpha-Screen IC50
Description: Inhibition of Auto-Phosphorylation of Recombinant Human NF-kappaB-Inducing Kinase (NIKIMAP3K14) Activity (AlphaScreen®)
NIK/MAP3K14 auto-phosphorylation activity was measured using the AlphaScreen® (ascreen) format (Perkin Elmer). All compounds tested were dissolved in dimethyl sulfoxide (DMSO) and further dilutions were made in assay buffer. Final DMSO concentration was 1% (v/v) in assays. Assay buffer was 50 mM Tris pH 7.5 containing 1 mM EGTA (ethylene glycol tetraacetic acid), 1 mM DTT (dithiothreitol), 0.1 mM Na3VO4, 5 mM MgCl2, 0.01% Tween® 20. Assays were carried out in 384 well Alphaplates (Perkin Elmer). Incubations consisted of compound, 25 microM Adenosine-5′-triphosphate (ATP), and 0.2 nM NIK/MAP3K14. Incubations were initiated by addition of GST-tagged NIK/MAP3K14 enzyme, carried out for 1 h at 25° C. and terminated by addition of stop buffer containing anti-phospho-IKK Ser176/180 antibody. Protein A Acceptor and Glutathione-Donor beads were added before reading using an EnVision® Multilabel Plate Reader (Perkin Elmer). Signal obtained in the wells containing blank samples was subtracted from all other wells and IC50's were determined by fitting a sigmoidal curve to % inhibition of control versus Log10 compound concentration.

[5] = tested on: LP-1 cells; experiment: Biological Assay C: antiproliferative activity on LP-1 cells (CellTiter-Glo); format: cell-based; settings: Homo sapiens, 72 hr treatment
Description: as §1, §2

[6] = molecular target: T1, Recombinant Human NF-kappaB-Inducing Kinase (NIK/MAP3K14); experiment: Biological Assay A: inhibition of recombinant human NIK/MAP3K14 activity (MSD, MBP substrate); settings: 25 μM ATP, 10 nM NIK/MAP3K14, 1 h at 25° C.; averaged over all batches; read-out: Biochemical (MSD MBP) IC50
Description: Inhibition of Recombinant Human NF-kappaB-Inducing Kinase (NIKIMAP3K14) Activity
Assay buffer was 50 mM Tris pH 7.5 containing 1 mM ethylene glycol tetraacetic acid (EGTA), 1 mM dithiothreitol (DTT), 0.1 mM Na3VO4, 5 mM MgCl2, 0.01% Tween® 20. Assays were carried out in 384 well Mesoscale high binding plates which had been coated with myelin basic protein (MBP) and blocked with bovine serum albumin to prevent non-specific protein binding. All compounds tested were dissolved in dimethyl sulfoxide (DMSO) and further dilutions were made in assay buffer. Final DMSO concentration was 1% (v/v) in assays. Incubations consisted of compound (1% DMSO in control and blank wells), 25 μM Adenosine-5′-triphosphate (ATP), and 10 nM NIK/MAP3K14 substituting enzyme with buffer in the blank wells. Incubations were carried out for 1 h at 25° C. and were followed by washing and sequential incubation with rabbit anti-phospho-MBP and anti-rabbit Ig Sulfotag antibody before reading bound Sulfotag on a Mesoscale Discovery. Signal obtained in the wells containing blank samples was subtracted from all other wells and IC50's were determined by fitting a sigmoidal curve to % inhibition of control versus Log10 compound concentration.

T1 sequence (Q99558 whole entry): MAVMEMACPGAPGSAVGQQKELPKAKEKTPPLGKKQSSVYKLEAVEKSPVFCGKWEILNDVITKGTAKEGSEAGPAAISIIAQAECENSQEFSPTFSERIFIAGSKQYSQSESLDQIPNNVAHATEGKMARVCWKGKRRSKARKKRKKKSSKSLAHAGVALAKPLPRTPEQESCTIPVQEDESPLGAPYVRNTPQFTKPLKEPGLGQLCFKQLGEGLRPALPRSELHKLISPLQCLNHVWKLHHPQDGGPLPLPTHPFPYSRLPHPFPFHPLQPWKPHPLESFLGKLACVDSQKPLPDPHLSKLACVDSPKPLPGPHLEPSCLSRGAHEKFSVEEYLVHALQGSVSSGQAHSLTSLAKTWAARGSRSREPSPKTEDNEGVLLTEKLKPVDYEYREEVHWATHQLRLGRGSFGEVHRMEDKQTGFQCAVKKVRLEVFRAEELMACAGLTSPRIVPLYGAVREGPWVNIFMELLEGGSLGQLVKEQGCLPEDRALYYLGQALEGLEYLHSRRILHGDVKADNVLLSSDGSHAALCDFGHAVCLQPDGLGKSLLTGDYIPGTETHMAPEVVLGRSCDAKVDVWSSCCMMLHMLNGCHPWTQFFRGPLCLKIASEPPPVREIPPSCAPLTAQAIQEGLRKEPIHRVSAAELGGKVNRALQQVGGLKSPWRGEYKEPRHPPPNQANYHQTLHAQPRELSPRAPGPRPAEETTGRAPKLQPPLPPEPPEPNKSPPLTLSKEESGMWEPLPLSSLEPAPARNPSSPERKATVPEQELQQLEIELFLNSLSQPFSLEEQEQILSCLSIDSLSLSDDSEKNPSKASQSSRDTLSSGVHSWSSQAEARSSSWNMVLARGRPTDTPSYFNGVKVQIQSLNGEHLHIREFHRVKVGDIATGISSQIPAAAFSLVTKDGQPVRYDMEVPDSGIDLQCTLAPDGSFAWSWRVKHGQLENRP

## CC(C)(O)C#Cc1cc2c(cn1)c(CCC(C)(C)O)cn2-c1nc(N)ncc1F [Compound 33]
[1]
  IC50: 256 nM
[2]
  EC50: 1730 nM
[3]
  EC50: 903 nM
[4]
  IC50: 25 nM
[5]
  EC50: 5350 nM
[6]
  IC50: 53 nM

## CC(O)(C#Cc1cc2c(ccn2-c2nc(N)ncc2Cl)cn1)c1nccs1 (stereo not drawn) [Compound 10]
[1]
  IC50: 89 nM
[2]
  EC50: 1220 nM
[3]
  EC50: 12800 nM
[4]
  IC50: 18 nM
[5]
  EC50: 28000 nM
[6]
  IC50: 5.1 nM

## Nc1nccc(-n2ccc3cnc(C#CC4(O)CCCC4)cc32)n1 [Compound 1]
[1]
  IC50: 13 nM
[2]
  EC50: 320 nM
[3]
  EC50: 673 nM
[5]
  EC50: 929 nM
[6]
  IC50: 8.9 nM

## Nc1ncc(F)c(-n2cc(CCCO)c3cnc(C#CC4(O)CCCC4)cc32)n1 [Compound 30]
[1]
  IC50: 38 nM
[2]
  EC50: 913 nM
[3]
  EC50: 1690 nM
[4]
  IC50: 17 nM
[5]
  EC50: 4050 nM
[6]
  IC50: 6.9 nM

## N#CCCc1cn(-c2ccnc(N)n2)c2cc(C#CC3(O)CCCC3)ncc12 [Compound 37]
[1]
  IC50: 119 nM
[2]
  EC50: 871 nM
[3]
  EC50: 1300 nM
[4]
  IC50: 29 nM
[5]
  EC50: 5170 nM
[6]
  IC50: 5.1 nM

## CC(CC#N)c1cn(-c2nc(N)ncc2F)c2cc(C#CC(C)(C)O)ncc12 (stereo not drawn) [Compound 38]
[2]
  EC50: 614 nM
[3]
  EC50: 261 nM
[4]
  IC50: 38 nM
[5]
  EC50: 2600 nM

## CC(O)(C#Cc1cc2c(cn1)c(C1CCN(CCC(F)(F)F)CC1)cn2-c1ccnc(N)n1)C1CC1 (stereo not drawn) [Compound 43]
[2]
  EC50: 442 nM
[3]
  EC50: 292 nM
[4]
  IC50: 67 nM
[5]
  EC50: 461 nM

## CC(O)(C#Cc1cc2c(cn1)c(C1CCN(CCC(F)(F)F)CC1)cn2-c1ccnc(N)n1)C1CC1 (single isomer, unassigned) [Compound 51]
[2]
  EC50: 220 nM
[3]
  EC50: 108 nM
[4]
  IC50: 13 nM
[5]
  EC50: 199 nM

## [2H]C([2H])([2H])N1CCC(c2cn(-c3ccnc(N)n3)c3cc(C#CC(O)(C([2H])([2H])[2H])C([2H])([2H])[2H])ncc23)CC1 [Compound 53]
[2]
  EC50: 32 nM
[3]
  EC50: 12 nM
[4]
  IC50: 35 nM
[5]
  EC50: 107 nM

## CC(C)(O)C#Cc1cc2c(ccn2-c2ccnc(N)n2)cn1 [Compound 3]
[1]
  IC50: 13 nM
[2]
  EC50: 46 nM
[3]
  EC50: 43 nM
[5]
  EC50: 84 nM

## [2H]C([2H])([2H])C(O)(C#Cc1cc2c(cn1)c(C1CCN(CCC(F)(F)F)CC1)cn2-c1nc(N)ncc1F)C([2H])([2H])[2H] [Compound 49]
[2]
  EC50: 231 nM
[3]
  EC50: 130 nM
[4]
  IC50: 69 nM
[5]
  EC50: 244 nM

## [2H]C([2H])([2H])C(O)(C#Cc1cc2c(cn1)c(C1CCN(C3CC3)CC1)cn2-c1ccnc(N)n1)C([2H])([2H])[2H] [Compound 45]
[2]
  EC50: 19 nM
[3]
  EC50: 8.3 nM
[4]
  IC50: 49 nM
[5]
  EC50: 29 nM
